Columns and labels:
[1] = test system: Jurkat cells; experiment: IL-2 secretion assay in CD3/CD28-activated Jurkat cells (AlphaLISA); type: cell-based; conditions: Homo sapiens, CD3/CD28 T Cell Activator, 24 h, IL-2 AlphaLISA
Summary of the method: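 Jurkat cells (50,000/well) were preincubated 1 h at 37° C with compound in a 16-point 1:2 series spanning 10 μM to 300 pM final. Cells were then activated with CD3/CD28 T cell activator, and secreted IL-2 was read by AlphaLISA. EC50 came from 4-parameter logistic fits.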

[2] = molecular target: T1, Cbl-b (Homo sapiens, UniProt Q13191); experiment: Cbl-b probe displacement HTRF binding assay; conditions: 0.4 nM biotinylated Cbl-b, 150 nM BODIPY probe
T1 construct: biotin (biotinylated)
Summary of the method: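 Biotinylated Cbl-b was preincubated with compound for 60 min at room temperature in HEPES/NaCl/Triton/TCEP/BSA buffer. BODIPY probe was added for 15 min, followed by streptavidin-terbium, and the HTRF signal was read. Displacement was normalised to DMSO and no-protein controls, and affinity was obtained from a four-parameter dose-response fit.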

T1 sequence (Q13191 whole entry, species assumed): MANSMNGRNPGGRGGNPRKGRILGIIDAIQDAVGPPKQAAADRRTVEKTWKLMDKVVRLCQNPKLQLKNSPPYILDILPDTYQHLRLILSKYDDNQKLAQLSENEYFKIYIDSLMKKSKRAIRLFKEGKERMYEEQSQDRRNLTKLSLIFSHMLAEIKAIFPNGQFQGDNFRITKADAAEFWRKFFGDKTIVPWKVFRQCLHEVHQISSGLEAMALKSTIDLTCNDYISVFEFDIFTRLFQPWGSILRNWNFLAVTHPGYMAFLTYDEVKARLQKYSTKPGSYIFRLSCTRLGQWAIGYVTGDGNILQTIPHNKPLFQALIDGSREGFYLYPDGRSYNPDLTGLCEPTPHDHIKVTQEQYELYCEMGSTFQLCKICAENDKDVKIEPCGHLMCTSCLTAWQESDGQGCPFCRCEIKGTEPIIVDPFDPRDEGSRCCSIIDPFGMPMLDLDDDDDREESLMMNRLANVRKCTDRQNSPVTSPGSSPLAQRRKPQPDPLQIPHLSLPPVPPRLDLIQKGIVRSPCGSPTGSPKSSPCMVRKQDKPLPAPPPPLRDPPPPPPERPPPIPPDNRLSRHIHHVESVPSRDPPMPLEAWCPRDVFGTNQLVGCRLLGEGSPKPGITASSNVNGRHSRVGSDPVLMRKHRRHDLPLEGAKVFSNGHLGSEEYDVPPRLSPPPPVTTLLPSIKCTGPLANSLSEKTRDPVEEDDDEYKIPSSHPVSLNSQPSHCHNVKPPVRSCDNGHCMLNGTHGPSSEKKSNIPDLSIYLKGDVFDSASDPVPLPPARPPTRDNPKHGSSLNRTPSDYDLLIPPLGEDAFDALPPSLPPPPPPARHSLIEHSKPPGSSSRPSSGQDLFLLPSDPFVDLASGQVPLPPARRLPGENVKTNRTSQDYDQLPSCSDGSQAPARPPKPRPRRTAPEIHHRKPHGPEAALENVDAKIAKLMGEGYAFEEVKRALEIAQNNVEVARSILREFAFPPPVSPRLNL

Compound | EC50 [1] | IC50 [2]
C[C@H]1CCCN(Cc2cc3c(C4CC4)cn(-c4cccc([C@]5(c6nncn6C)C[C@@H](OC(F)F)C5)c4)c(=O)c3[nH]2)C1 [Example 96, cis-4-cyclopropyl-6-[3-[3-(difluoromethoxy)-1-(4-methyl-1,2,4-triazol-3-yl)cyclobutyl]phenyl]-2-[[(3S)-3-methylpiperidin-1-yl]methyl]-1H-pyrrolo[2,3-c]pyridin-7-one] | < 100 nM | < 100 nM
C[C@H]1CCCN(Cc2cc3c(C4CC4)cn(-c4cccc([C@]5(c6nccn6C)C[C@H](OC(F)F)C5)c4)c(=O)c3[nH]2)C1 [Example 97, 4-cyclopropyl-6-[3-[3-(difluoromethoxy)-1-(1-methylimidazol-2-yl)cyclobutyl]phenyl]-2-[[(3S)-3-methylpiperidin-1-yl]methyl]-1H-pyrrolo[2,3-c]pyridin-7-one] | 100 to 1000 nM | < 100 nM
CO[C@H]1C[C@](c2cccc(-n3cc(C4CC4)c4cc(CN5CCC6(CC6)C5)[nH]c4c3=O)c2)(c2nncn2C)C1 [Example 100] | 100 to 1000 nM | < 100 nM
COC1CC(c2cccc(-n3cc(C4CC4)c4cc(CN5CCO[C@H](C)C5)[nH]c4c3=O)c2)(c2nncn2C)C1 (stereo partly drawn) [Example 103, 4-cyclopropyl-6-[3-[3-methoxy-1-(4-methyl-1,2,4-triazol-3-yl)cyclobutyl]phenyl]-2-[[(2R)-2-methylmorpholin-4-yl]methyl]-1H-pyrrolo[2,3-c]pyridin-7-one] | 100 to 1000 nM | < 100 nM
C[C@@H]1CN(Cc2nc3c(C(F)(F)F)cn(-c4cccc(C5(c6nncn6C)CC(F)(F)C5)c4)c(=O)c3[nH]2)CCO1 [Example 114, 5-[3-[3,3-difluoro-1-(4-methyl-1,2,4-triazol-3-yl)cyclobutyl]phenyl]-2-[[(2R)-2-methylmorpholin-4-yl]methyl]-7-(trifluoromethyl)-3H-imidazo[4,5-c]pyridin-4-one] | > 5000 nM | 100 to 1000 nM
Cn1cnnc1C1(c2cccc(-n3cc(C(F)(F)F)c4nc(CN5CCC(F)(F)C5)[nH]c4c3=O)c2)CC(F)(F)C1 [Example 115, 5-[3-[3,3-difluoro-1-(4-methyl-1,2,4-triazol-3-yl)cyclobutyl]phenyl]-2-[(3,3-difluoropyrrolidin-1-yl)methyl]-7-(trifluoromethyl)-3H-imidazo[4,5-c]pyridin-4-one] | > 5000 nM | 1000 to 5000 nM
C[C@H]1CCCN(Cc2cc3ncn(-c4cccc(C5(c6nncn6C)CC(F)(F)C5)c4)c(=O)c3[nH]2)C1 [Example 120, 3-{3-[3,3-Difluoro-1-(4-methyl-4H-1,2,4-triazol-3-yl)cyclobutyl]phenyl}-6-{[(3S)-3-methylpiperidin-1-yl]methyl}-3H,4H,5H-pyrrolo[3,2-d]pyrimidin-4-one] | 100 to 1000 nM | < 100 nM
C[C@H]1CCCN(Cc2cc3c(C4CC4)cn(-c4cccc(C5(c6nnco6)CC(F)(F)C5)c4)c(=O)c3[nH]2)C1 [Example 121, 4-cyclopropyl-6-[3-[3,3-difluoro-1-(1,3,4-oxadiazol-2-yl)cyclobutyl]phenyl]-2-[[(3S)-3-methylpiperidin-1-yl]methyl]-1H-pyrrolo[2,3-c]pyridin-7-one] | 100 to 1000 nM | 100 to 1000 nM
C[C@H]1CCCN(Cc2cc3c(C4CC4)cn(-c4cccc(C5(Cn6nccn6)CC(F)(F)C5)c4)c(=O)c3[nH]2)C1 [Example 122, 4-cyclopropyl-6-[3-[3,3-difluoro-1-(triazol-2-ylmethyl)cyclobutyl]phenyl]-2-[[(3S)-3-methylpiperidin-1-yl]methyl]-1H-pyrrolo[2,3-c]pyridin-7-one] | 100 to 1000 nM | 100 to 1000 nM

The remaining lines, values ahead:

EC50 [1] | IC50 [2] | Compound
< 100 nM | < 100 nM | CCO[C@H]1C[C@](c2cccc(-n3cc(C4CC4)c4cc(CN5CCC[C@H](C)C5)[nH]c4c3=O)c2)(c2nncn2C)C1 [Example 98, trans-4-cyclopropyl-6-[3-[3-ethoxy-1-(4-methyl-1,2,4-triazol-3-yl)cyclobutyl]phenyl]-2-[[(3S)-3-methylpiperidin-1-yl]methyl]-1H-pyrrolo[2,3-c]pyridin-7-one]
< 100 nM | < 100 nM | CO[C@H]1C[C@](c2cccc(-n3cc(C4CC4)c4cc(CN5CCC[C@H](C)C5)[nH]c4c3=O)c2)(c2nncn2C)C1 [Example 101, trans-4-cyclopropyl-6-[3-[3-methoxy-1-(4-methyl-1,2,4-triazol-3-yl)cyclobutyl]phenyl]-2-[[(3S)-3-methylpiperidin-1-yl]methyl]-1H-pyrrolo[2,3-c]pyridin-7-one]
< 100 nM | < 100 nM | CO[C@H]1C[C@@](c2cccc(-n3cc(C4CC4)c4cc(CN5CCC[C@H](C)C5)[nH]c4c3=O)c2)(c2nncn2C)C1 [Example 102, cis-4-cyclopropyl-6-[3-[3-methoxy-1-(4-methyl-1,2,4-triazol-3-yl)cyclobutyl]phenyl]-2-[[(3S)-3-methylpiperidin-1-yl]methyl]-1H-pyrrolo[2,3-c]pyridin-7-one]
< 100 nM | < 100 nM | C[C@H]1CCCN(Cc2cc3c(C(F)(F)F)cn(-c4cccc(C5(c6nncn6C)CC6(CC6)C5)c4)c(=O)c3[nH]2)C1 [Example 105]
< 100 nM | < 100 nM | C[C@H]1CCCN(Cc2nc3c(C4CC4)cn(-c4cccc([C@]5(c6nncn6C)C[C@H](C)C5)c4)c(=O)c3[nH]2)C1 [Example 109, 7-cyclopropyl-5-[3-[3-methyl-1-(4-methyl-1,2,4-triazol-3-yl)cyclobutyl]phenyl]-2-[[(3S)-3-methylpiperidin-1-yl]methyl]-3H-imidazo[4,5-c]pyridin-4-one]
100 to 1000 nM | < 100 nM | C[C@@H]1CN(Cc2nc3c(C4CC4)cn(-c4cccc([C@]5(c6nncn6C)C[C@H](C)C5)c4)c(=O)c3[nH]2)CCO1 [Example 110, 7-cyclopropyl-5-[3-[3-methyl-1-(4-methyl-1,2,4-triazol-3-yl)cyclobutyl]phenyl]-2-[[(2R)-2-methylmorpholin-4-yl]methyl]-3H-imidazo[4,5-c]pyridin-4-one]
< 100 nM | < 100 nM | C[C@H]1CCCN(Cc2nc3c(C4CC4)cn(-c4cccc(C5(c6nncn6C)CC6(CC6)C5)c4)c(=O)c3[nH]2)C1 [Example 111, 7-cyclopropyl-2-[[(3S)-3-methylpiperidin-1-yl]methyl]-5-[3-[5-(4-methyl-1,2,4-triazol-3-yl)spiro[2.3]hexan-5-yl]phenyl]-3H-imidazo[4,5-c]pyridin-4-one]
< 100 nM | < 100 nM | C[C@H]1CCCN(Cc2nc3c(C4CC4)cn(-c4cccc(C5(c6nncn6C)CC(F)(F)C5)c4)c(=O)c3[nH]2)C1 [Example 112, 7-cyclopropyl-5-[3-[3,3-difluoro-1-(4-methyl-1,2,4-triazol-3-yl)cyclobutyl]phenyl]-2-[[(3S)-3-methylpiperidin-1-yl]methyl]-3H-imidazo[4,5-c]pyridin-4-one]
< 100 nM | < 100 nM | C[C@H]1CCCN(Cc2nc3c(C(F)(F)F)cn(-c4cccc(C5(c6nncn6C)CC(F)(F)C5)c4)c(=O)c3[nH]2)C1 [Example 113, 5-[3-[3,3-difluoro-1-(4-methyl-1,2,4-triazol-3-yl)cyclobutyl]phenyl]-2-[[(3S)-3-methylpiperidin-1-yl]methyl]-7-(trifluoromethyl)-3H-imidazo[4,5-c]pyridin-4-one]

Reference: US20260028336A1 (Arcus Biosciences, Inc., priority 2022, published 2026)
